The values that follow come from ChEMBL document CHEMBL1147588, “Synthesis and in vitro cytotoxicity of 5-substituted 2-cyanoimino-4-imidazodinone and 2-cyanoimino-4-pyrimidinone derivatives” (Bioorg Med Chem Lett, 2004).

The subject of one experiment is DLD-1. The experiment in a line: Cytotoxic activity against DLD1 colon cancer cell line. The format is functional, cell-based. The settings on record: Homo sapiens.
The test system of experiment [1] is HA22T cell line. The experiment in a line: Cytotoxic activity against HA22T liver cancer cell line. Format: functional, cell-based. Particulars: Homo sapiens; call rule not given here.
Another experiment has as its system HONE1 cell line. Put plainly: Cytotoxic activity against HONE1 nasopharyngeal carcinoma cell line. Format: functional, cell-based. Particulars: Homo sapiens.
The next experiment has as its system HepG2. The experiment in a line: Cytotoxic activity against HepG2 liver cancer cell line. The format is functional, cell-based. Particulars: Homo sapiens.
For experiment [2], the system named is MCF7. Put plainly: Cytotoxic activity against MCF breast cancer cell line. Format: functional, cell-based. Particulars: Homo sapiens.
The test system of the next experiment is NUGC. The experiment in a line: Cytotoxic activity against NUGC gastric cancer cell line. The settings on record: Homo sapiens, Stomach. Format: functional, cell-based.
In the next experiment the test system is WI-38. The experiment in a line: Cytotoxic activity against WI38 normal fibroblast cell line; na=Not active. The format is functional, cell-based, Homo sapiens.
The subject of experiment [3] is HA22T cell line. The experiment in a line: Cytotoxic activity against HA22T liver cancer cell line; na=Not active. Format: functional, cell-based, Homo sapiens.
Experiment [4] relates to MCF7. Put plainly: Cytotoxic activity against MCF breast cancer cell line; na=Not active. The format is functional, cell-based, Homo sapiens.

Usually IC50 stands for the concentration that inhibits the measured activity by half. Low readings indicate higher potency, high ones lower potency. Take `N#C/N=C1\N(CCCCCCCOc2ccc(Cl)cc2)C(=O)C(c2ccccc2)N1c1ccncc1` (configuration not stated): the IC50 turned out to be 290 nM with DLD-1; 831 nM in the experiment on HA22T cell line [1]; 398 nM in the experiment with HONE1 cell line; 380 nM in the experiment with HepG2; 1170 nM in the experiment on MCF7 [2]; 3350 nM with NUGC. Besides, the IC50 result in the experiment with WI-38 was “Not Active”.
Regarding `CC1C(=O)N(CCCCCOc2ccc(Cl)cc2)/C(=N\C#N)N1c1ccncc1` (configuration not stated), the IC50 in the experiment with DLD-1 is 4110 nM; in the experiment on HA22T cell line [3] it was “Not Active”; with HONE1 cell line, 3680 nM; in the experiment with HepG2, 4090 nM; in the experiment with MCF7 [2], 9260 nM; in the experiment with NUGC, 1780 nM. Further, the IC50 result in the experiment with WI-38 is given as “Not Active”.
As for `N#CN=C(NCCCCCCOc1ccc(Cl)cc1)Nc1ccncc1` [CHS-828], the IC50 with DLD-1 turned out to be 2320 nM; with HA22T cell line [1], 2070 nM; with HONE1 cell line it was 15 nM; with HepG2, 1240 nM; in the experiment on MCF7 [2], 18 nM; with NUGC, 25 nM. In the experiment on WI-38, the IC50 entry is “Not Active”.
Regarding `N#C/N=C1\N(CCCCCCCOc2ccc(Cl)cc2)C(=O)CCN1c1ccncc1`, the IC50 with DLD-1 worked out at 3200 nM; with HA22T cell line [1] it was 7560 nM; in the experiment with HONE1 cell line, 3440 nM; in the experiment on HepG2, 4000 nM; in the experiment on MCF7 [2] it was 6840 nM; in the experiment on NUGC, 1100 nM. The IC50 entry in the experiment on WI-38 is “Not Active”.
Turning to `N#C/N=C1\N(CCCCCOc2ccc(Cl)cc2)C(=O)C(c2ccccc2)N1c1ccncc1` (configuration not stated), the IC50 with DLD-1 amounted to 337 nM; in the experiment with HA22T cell line [1], 3590 nM; with HONE1 cell line it was 373 nM; in the experiment with HepG2, 415 nM; in the experiment with MCF7 [2], 1000 nM; in the experiment on NUGC, 3450 nM. In the experiment on WI-38, the IC50 entry is reported as “Not Active”.
As for `N#C/N=C1\N(CCCCCOc2ccc(Cl)cc2)C(=O)CN1c1ccncc1`, the IC50 in the experiment on DLD-1 turned out to be 3800 nM; with HA22T cell line [1], 8970 nM; with HONE1 cell line, 3400 nM; in the experiment on HepG2 it was 4200 nM; in the experiment on MCF7 [2] it was 5360 nM; with NUGC, 2760 nM. For the same compound, the IC50 result in the experiment on WI-38 is reported as “Not Active”.
For `CC1C(=O)N(CCCCCCCOc2ccc(Cl)cc2)/C(=N\C#N)N1c1ccncc1` (configuration not stated), the IC50 with DLD-1 amounted to 370 nM; in the experiment with HA22T cell line [1], 688 nM; in the experiment on HONE1 cell line it was 371 nM; with HepG2 it was 359 nM; in the experiment on MCF7 [2], 460 nM; in the experiment with NUGC it was 1240 nM. Also, in the experiment with WI-38, the IC50 entry is reported as “Not Active”.
As for `CCC1C(=O)N(CCCCCCOc2ccc(Cl)cc2)/C(=N\C#N)N1c1ccncc1` (configuration not stated), the IC50 was 3560 nM in the experiment with DLD-1; 5130 nM with HA22T cell line [1]; 3870 nM with HONE1 cell line; 4350 nM in the experiment on HepG2; 6910 nM in the experiment on MCF7 [2]; 406 nM in the experiment with NUGC. In the experiment with WI-38, the IC50 entry was “Not Active”.
`N#C/N=C1\N(CCCCCCOc2ccc(Cl)cc2)C(=O)C(c2ccccc2)N1c1ccncc1` (configuration not stated): the IC50 turned out to be 37 nM in the experiment on DLD-1; 526 nM with HA22T cell line [1]; 337 nM with HONE1 cell line; 44 nM in the experiment with HepG2; 1130 nM with MCF7 [2]; 3340 nM with NUGC. Further, the IC50 result with WI-38 was “Not Active”.
`CCC1C(=O)N(CCCCCCCOc2ccc(Cl)cc2)/C(=N\C#N)N1c1ccncc1` (configuration not stated): the IC50 was determined as 3530 nM in the experiment with DLD-1; 6050 nM in the experiment on HA22T cell line [1]; 3230 nM in the experiment with HONE1 cell line; 3450 nM in the experiment with HepG2; 4540 nM in the experiment on MCF7 [2]; 1280 nM in the experiment on NUGC. Moreover, the IC50 result with WI-38 was “Not Active”.
On to `N#C/N=C1\N(CCCCCCOc2ccc(Cl)cc2)C(=O)CCN1c1ccncc1`, for which the IC50 in the experiment with DLD-1 is 565 nM; with HA22T cell line [1], 3040 nM; in the experiment on HONE1 cell line it was 577 nM; in the experiment on HepG2, 344 nM; in the experiment with MCF7 [2], 454 nM; with NUGC, 288 nM. In addition, the IC50 entry in the experiment on WI-38 was “Not Active”.
Regarding `CCC1C(=O)N(CCCCCOc2ccc(Cl)cc2)/C(=N\C#N)N1c1ccncc1` (configuration not stated), the IC50 was 4080 nM in the experiment on DLD-1; “Not Active” with HA22T cell line [3]; 4830 nM in the experiment with HONE1 cell line; 4320 nM in the experiment on HepG2; “Not Active” in the experiment with MCF7 [4]; 3040 nM in the experiment with NUGC. In addition, the IC50 result with WI-38 is on record as “Not Active”.
Consider `N#C/N=C1\N(CCCCCCCOc2ccc(Cl)cc2)C(=O)CN1c1ccncc1`, for which the IC50 was 3340 nM in the experiment with DLD-1; 3500 nM with HA22T cell line [1]; 3240 nM in the experiment with HONE1 cell line; 2740 nM with HepG2; 815 nM with MCF7 [2]; 926 nM in the experiment on NUGC. Besides, the IC50 result in the experiment with WI-38 is on record as “Not Active”.
On to `CC1C(=O)N(CCCCCCOc2ccc(Cl)cc2)/C(=N\C#N)N1c1ccncc1` (configuration not stated), for which the IC50 with DLD-1 turned out to be 333 nM; with HA22T cell line [1], 382 nM; in the experiment on HONE1 cell line, 303 nM; in the experiment with HepG2, 282 nM; in the experiment with MCF7 [2], 270 nM; with NUGC, 214 nM. Further, in the experiment with WI-38, the IC50 result is “Not Active”.
For `N#C/N=C1\N(CCCCCCOc2ccc(Cl)cc2)C(=O)CN1c1ccncc1`, the IC50 was 3440 nM in the experiment with DLD-1; 3860 nM in the experiment with HA22T cell line [1]; 2960 nM in the experiment on HONE1 cell line; 392 nM in the experiment with HepG2; 443 nM with MCF7 [2]; 386 nM in the experiment with NUGC. In the experiment on WI-38, the IC50 entry is given as “Not Active”.
Consider `N#C/N=C1\N(CCCCCOc2ccc(Cl)cc2)C(=O)CCN1c1ccncc1`, for which the IC50 with DLD-1 is 6740 nM; in the experiment on HA22T cell line [3], “Not Active”; with HONE1 cell line, 3450 nM; in the experiment with HepG2, 2830 nM; with MCF7 [2] it was 5460 nM; with NUGC, 3120 nM. The IC50 entry with WI-38 is on record as “Not Active”.
